These results are taken from publication PMC12268802, “The herbicidal natural product phosphonothrixin is an inhibitor of the riboflavin biosynthetic enzyme L‐3,4‐dihydroxy‐2‐butanone‐4‐phosphate synthase” (Pest Management Science, 2025).

In data set [1] the test system is imidazoleglycerol phosphate dehydratase. More on the design: method as in PMID 12228396. The following applies: cited from earlier work.
The conditions of data set [2]: cited from earlier work.
Data set [3] deals with EPSP synthase. More on the design: method as in PMID 1939260. Conditions: from several higher plants; cited from earlier work.
Data set [4] relates to Lemna gibba. In words: Lemna gibba growth assay. The data set is classed as in vivo. The following applies: 7 days. On the procedure: Growth experiments were performed in sterile 6‐well cell culture plates and were initiated by transferring four Lemna gibba fronds per well to 5 mL of K‐medium[22] pH 4.8 containing 1% (w/v) sucrose and a selected concentration of phosphonothrixin (1) and riboflavin determined from previous experiments. The cell culture plates were incubated for 7 days in a growth cabinet at 22 °C and a continuous photon flux density of 75 μE/m^2s.

In data set [5] the target is dihydroxy‐acid dehydratase. More on the design: method as in PMID 29995859. The following applies: Arabidopsis enzyme; cited from earlier work.
Substrate in data set [6]: O=C(CO)[C@H](O)[C@H](O)COP(=O)(O)O
Briefly: DHBPS activity assay. Conditions: other: substrate varied 0 to 2 mM; pH 6.5. The data set is classed as biochemical, Arabidopsis thaliana. On the procedure:
DHBPS activity assays were out carried in 96‐well microtiter plates using a modification of the procedure previously described.[18] The reaction mixture contained 100 mM MES (2‐morpholinoethanesulfonic acid) buffer pH 6.5, 20 mM MgCl2, 20 mM D‐ribose‐5‐phosphate (Sigma‐Aldrich R7750), 0.02% Tween‐20, 0.2 mg BSA, 0.5 μg of spinach phosphoriboisomerase (Sigma‐Aldrich P9752) and DHBPS enzyme in a final volume of 110 μL. Assays were initiated by adding enzyme and terminated after 120 min incubation at rt by the addition of 90 μL of a solution of 3.5% α‐naphthol and 0.2% creatine in 2 N NaOH. After an additional 45 min incubation at rt the absorbance was determined at 540 nm. The pI50‐value for inhibition by phosphonothrixin (1) was determined with the XLFit Excel add‐in version 4.3.1 curve fitting program of ID Business Solutions Limited. […] Reaction velocities were fitted to the Michaelis–Menten equation with the XLFit curve fitting program.

The mark [7] stands for this setting: 50 μM riboflavin in the presence of 100 μM phosphonothrixin.

For `O=P(O)(O)[C@H]1CCC[C@@](O)(c2nc[nH]n2)C1` (relative stereo) [IRL1803, trans‐(3‐hydroxy‐3‐(1H‐1,2,4‐triazol‐3‐yl)cyclohexyl)‐phosphonic acid], in data set [1], the “potency against imidazoleglycerol phosphate dehydratase” value was “nanomolar inhibitor”. In addition, in data set [2], the “application rate required for a significant herbicidal effect” value is about 1 kg ha^−1.

Take `O=C(O)CNCP(=O)(O)O` [glyphosate]: the “IC50-values, EPSP synthase” value in data set [3] was “single and double‐digit micromolar range”.

`Cc1cc2nc3c(=O)[nH]c(=O)nc-3n(C[C@H](O)[C@H](O)[C@H](O)CO)c2cc1C` [riboflavin]: in data set [4] (50 μM riboflavin alone), the “bleaching of Lemna gibba fronds” value is reported as “some mild bleaching of the fronds” and the “growth of Lemna gibba” value is on record as “did not affect the growth”. In data set [4] (setting [7]), the “reversal of bleaching of Lemna gibba” value is reported as “reversed the bleaching phenotype to the level observed in the experiment where only riboflavin had been applied” and the “reversal of growth inhibition of Lemna gibba” value is “almost completely alleviated the growth inhibition”.

aspterric acid: the IC50 in data set [5] is 500 nM.

B1: AtDHBPS (Arabidopsis thaliana) (protein)
chain: MFVAEDDDFELDLPTPGFSSIPEAIEDIRQGKLVVVVDDEDRENEGDLVMAAQLATPEAMAFIVRHGTGIVCVSMKEDDLERLHLPLMVNQKENEEKLSTAFTVTVDAKHGTTTGVSARDRATTILSLASRDSKPEDFNRPGHIFPLKYREGGVLKRAGHTEASVDLTVLAGLDPVGVLCEIVDDDGSMARLPKLREFAAENNLKVVSIADLIRYRRKRDKLVERASKGGRADPAFLYKVVINSKLEGKPIPNPLLGLDSTRTGHHHHHH
notes: made in house; host or cells: Escherichia coli BL21(DE3)
Take B1: the Michaelis constant (Km) in data set [6] was 150 ± 20 µM.

For orientation: IC50 means the concentration that gives 50% inhibition. The Km is the concentration of substrate that gives half-maximal velocity.
